Like-named read-outs stand apart in the source and are kept apart here.
Columns and labels:
HCV replicon genotype 1b = assay: HCV replicon assay, genotype 1b (cell ELISA for NS3/4A); assay type: cell-based, hepatitis C virus
In short: (§1)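 Readout is NS3/4A protein level from an antibody-based cell ELISA, serving as an indirect measure of replicon RNA; IC50 fitted with a four-parameter function relative to DMSO control. Replicon cells, kept under G418 beforehand, were plated with serial compound dilutions minus G418 for 96 hours.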

HCV replicon genotype 1a = assay: HCV replicon assay, genotype 1a (cell ELISA for NS3/4A); assay type: cell-based, hepatitis C virus
In short: as §1

[1] = Hepatitis C virus, 96 h, read-out: 1b IC50 (nM), HCV genotype 1b replicon cells, 96 hours incubation, NS3/4A ELISA readout, % of DMSO control
[2] = Hepatitis C virus, 96 h, read-out: 1a IC50 (nM), HCV genotype 1a replicon cells, 96 hours incubation, NS3/4A ELISA readout, % of DMSO control
[3] = read-out: 1b IC50, HCV genotype 1b replicon cells, 96 hours incubation, NS3/4A ELISA readout, % of DMSO control
[4] = read-out: 1a IC50, HCV genotype 1a replicon cells, 96 hours incubation, NS3/4A ELISA readout, % of DMSO control

| SMILES | IC50 (HCV replicon genotype 1b; [1]) [nM] | IC50 (HCV replicon genotype 1a; [2]) [nM] | IC50 (HCV replicon genotype 1b; [3]) [nM] | IC50 (HCV replicon genotype 1a; [4]) [nM] |
| --- | --- | --- | --- | --- |
| CNC(=O)c1c(-c2ccc(F)cc2)oc2cc(N(C)S(C)(=O)=O)c([C@H]3CCCN(S(=O)(=O)c4cccc(F)c4)C3)cc12 [Example 130, 2-(4-fluorophenyl)-5-{(3R)-1-[(3-fluorophenyl)sulfonyl]piperidin-3-yl}-N-methyl-6-[methyl(methylsulfonyl)amino]-1-benzofuran-3-carboxamide] | 95.5 | 174 |  |  |
| CNC(=O)c1c(-c2ccc(F)cc2)oc2cc(N(C)S(C)(=O)=O)c([C@H]3CCCN(c4nc5c(C#N)cccc5o4)C3)cc12 [Example 4, (R)-5-(1-(4-cyanobenzo[d]oxazol-2-yl)piperidin-3-yl)-2-(4-fluorophenyl)-N-methyl-6-(N-methylmethylsulfonamido)benzofuran-3-carboxamide] | 6.53 | 7.03 |  |  |
| CNC(=O)c1c(-c2ccc(F)cc2)oc2cc(N(C)S(C)(=O)=O)c([C@H]3CCCN(S(=O)(=O)Cc4ccccn4)C3)cc12 [Example 139, 2-(4-fluorophenyl)-N-methyl-6-[methyl(methylsulfonyl)amino]-5-{(3R)-1-[(pyridin-2-ylmethyl)sulfonyl]piperidin-3-yl}-1-benzofuran-3-carboxamide] | 21.1 | 35 |  |  |
| CNC(=O)c1c(-c2ccc(F)cc2)oc2cc(N(C)S(C)(=O)=O)c([C@H]3CCCN(C(=O)c4n[nH]c(=O)c5ccccc45)C3)cc12 [Example 97, 2-(4-fluorophenyl)-N-methyl-6-[methyl(methylsulfonyl)amino]-5-{(3R)-1-[(4-oxo-3,4-dihydrophthalazin-1-yl)carbonyl]piperidin-3-yl}-1-benzofuran-3-carboxamide] | 470 | 336 |  |  |
| CNC(=O)c1c(-c2ccc(F)cc2)oc2cc(N(C)S(C)(=O)=O)c([C@@H]3CCCN(S(=O)(=O)C4CCCCC4)C3)cc12 [Example 116, 5-[(3S)-1-(cyclohexylsulfonyl)piperidin-3-yl]-2-(4-fluorophenyl)-N-methyl-6-[methyl(methylsulfonyl)amino]-1-benzofuran-3-carboxamide] | 31.7 | 194 |  |  |
| CNC(=O)c1c(-c2ccc(F)cc2)oc2cc(N(C)S(C)(=O)=O)c([C@H]3CCCN(S(=O)(=O)c4ccccc4)C3)cc12 [Example 134, 2-(4-fluorophenyl)-N-methyl-6-[methyl(methylsulfonyl)amino]-5-[(3R)-1-(phenylsulfonyl)piperidin-3-yl]-1-benzofuran-3-carboxamide] | 58.3 | 85.9 |  |  |
| CNC(=O)c1c(-c2ccc(F)cc2)oc2cc(N(C)S(C)(=O)=O)c([C@@H]3CCCN(c4nc5c(F)cccc5[nH]4)C3)cc12 (single isomer, unassigned) [Example 55, 5-(1-(4-fluoro-1H-benzo[d]imidazol-2-yl)piperidin-3-yl)-2-(4-fluorophenyl)-N-methyl-6-(N-methylmethylsulfonamido)benzofuran-3-carboxamide] |  |  | 3.63 | 5.65 |
| CNC(=O)c1c(-c2ccc(F)cc2)oc2cc(N(C)S(C)(=O)=O)c([C@H]3CCCN(C(=O)c4cc5cc(F)ccc5n4C)C3)cc12 [Example 85, 5-{(3R)-1-[(5-fluoro-1-methyl-1H-indol-2-yl)carbonyl]piperidin-3-yl}-2-(4-fluorophenyl)-N-methyl-6-[methyl(methylsulfonyl)amino]-1-benzofuran-3-carboxamide] | 12.5 | 26 |  |  |
| CNC(=O)c1c(-c2ccc(F)cc2)oc2cc(N(C)S(C)(=O)=O)c([C@H]3CN(c4nc5ccccc5o4)CCO3)cc12 (single isomer, unassigned) [Example 10, 5-(4-(benzo[d]oxazol-2-yl)morpholin-2-yl)-2-(4-fluorophenyl)-N-methyl-6-(N-methylmethylsulfonamido)benzofuran-3-carboxamide] | 26.6 | 16 |  |  |
| CNC(=O)c1c(-c2ccc(F)cc2)oc2cc(N(C)S(C)(=O)=O)c([C@H]3CCCN(S(=O)(=O)Cc4cccc(F)c4)C3)cc12 [Example 82, 5-{(3R)-1-[(3-fluorobenzyl)sulfonyl]piperidin-3-yl}-2-(4-fluorophenyl)-N-methyl-6-[methyl(methylsulfonyl)amino]-1-benzofuran-3-carboxamide] | 3.26 | 2.2 |  |  |
| CNC(=O)c1c(-c2ccc(F)cc2)oc2cc(N(C)S(C)(=O)=O)c([C@H]3CN(C(=O)c4cc5c(F)cccc5n4C)CCO3)cc12 (single isomer, unassigned) [Example 9, 5-(4-(4-fluoro-1-methyl-1H-indole-2-carbonyl)morpholin-2-yl)-2-(4-fluorophenyl)-N-methyl-6-(N-methylmethylsulfonamido)benzofuran-3-carboxamide] |  |  | 67.8 | 54 |
| CNC(=O)c1c(-c2ccc(F)cc2)oc2cc(N(C)S(C)(=O)=O)c([C@@H]3CCCN(C(=O)Cc4ccc(F)cn4)C3)cc12 (stereo in doubt) [Example 70, 2-(4-fluorophenyl)-5-{1-[(5-fluoropyridin-2-yl)acetyl]piperidin-3-yl}-N-methyl-6-[methyl(methylsulfonyl)amino]-1-benzofuran-3-carboxamide] | 67.9 | 207 |  |  |
| CNC(=O)c1c(-c2ccc(F)cc2)oc2cc(N(C)S(C)(=O)=O)c([C@@H]3CCCN(C(=O)c4cc5sccc5n4C)C3)cc12 [Example 74, 2-(4-fluorophenyl)-N-methyl-6-[methyl(methylsulfonyl)amino]-5-{1-[(4-methyl-4H-thieno[3,2-b]pyrrol-5-yl)carbonyl]piperidin-3-yl}-1-benzofuran-3-carboxamide] | 43.4 | 54.8 |  |  |
| CNC(=O)c1c(-c2ccc(F)cc2)oc2cc(N(C)S(C)(=O)=O)c([C@@H]3CCCN(S(=O)(=O)Cc4cccnc4)C3)cc12 [Example 110, 2-(4-fluorophenyl)-N-methyl-6-[methyl(methylsulfonyl)amino]-5-{(3S)-1-[(pyridin-3-ylmethyl)sulfonyl]piperidin-3-yl}-1-benzofuran-3-carboxamide] | 38.4 | 164 |  |  |
| CNC(=O)c1c(-c2ccc(F)cc2)oc2cc(N(C)S(C)(=O)=O)c([C@@H]3CCCN(C(=O)c4cc5ccccc5[nH]4)C3)cc12 (single isomer, unassigned) [Example 21, 5-(1-(1H-indole-2-carbonyl)piperidin-3-yl)-2-(4-fluorophenyl)-N-methyl-6-(N-methylmethylsulfonamido)benzofuran-3-carboxamide] | 9.96 |  |  | 16.2 |
| CNC(=O)c1c(-c2ccc(F)cc2)oc2cc(N(C)S(C)(=O)=O)c([C@H]3CCCN(S(=O)(=O)c4cn(CC(C)C)nc4C)C3)cc12 [Example 143, 2-(4-fluorophenyl)-N-methyl-5-[(3R)-1-{[3-methyl-1-(2-methylpropyl)-1H-pyrazol-4-yl]sulfonyl}piperidin-3-yl]-6-[methyl(methylsulfonyl)amino]-1-benzofuran-3-carboxamide] | 214 | 315 |  |  |
| CNC(=O)c1c(-c2ccc(F)cc2)oc2cc(N(C)S(C)(=O)=O)c([C@@H]3CCCN(C(=O)c4cc5c(F)cccc5n4C)C3)cc12 (single isomer, unassigned) [Example 25, 5-(1-(4-fluoro-1-methyl-1H-indole-2-carbonyl)piperidin-3-yl)-2-(4-fluorophenyl)-N-methyl-6-(N-methylmethylsulfonamido)benzofuran-3-carboxamide] |  | 16.4 | 5.26 |  |
